# In patent publication US8034822B2, “Glucokinase activators” (Takeda San Diego, Inc., priority 2006, dated 2011):
# Target: T1, glucokinase (GK) (Homo sapiens, UniProt P35557)
# T1 construct: I.D. No. 1 corresponds to residues 12-465 of glucokinase; made in house; host or cells: E. coli DH10b-T1r, pFLAG-CTC plasmid
# T1 sequence (P35557 with tags, fused parts or gaps isoform P35557-2): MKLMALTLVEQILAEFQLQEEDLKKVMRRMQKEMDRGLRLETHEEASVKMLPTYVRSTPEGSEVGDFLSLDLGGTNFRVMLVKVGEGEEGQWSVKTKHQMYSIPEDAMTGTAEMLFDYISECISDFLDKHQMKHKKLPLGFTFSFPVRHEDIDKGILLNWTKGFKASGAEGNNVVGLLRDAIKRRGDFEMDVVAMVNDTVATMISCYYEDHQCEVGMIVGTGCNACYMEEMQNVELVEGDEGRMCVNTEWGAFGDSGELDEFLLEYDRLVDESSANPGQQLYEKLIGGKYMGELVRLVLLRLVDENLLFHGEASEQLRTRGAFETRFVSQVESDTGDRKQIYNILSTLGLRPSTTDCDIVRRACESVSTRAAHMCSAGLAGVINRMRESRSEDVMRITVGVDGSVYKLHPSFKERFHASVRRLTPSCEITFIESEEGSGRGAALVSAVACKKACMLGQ
# Test: enzymatic glucokinase activity assay (ATP consumption, KinaseGlo luminescence)
# Assay type: biochemical
# Conditions: Against GK; Kact = concentration giving 50% of maximal increase in GK activity; 5 μM ATP, 5 mM Glucose, 60 min room temperature; values given as bins; read-out: pKact
# Text: The activity of compounds as glucokinase activators may be assayed in vitro, in vivo or in a cell line. Provided below is an enzymatic glucokinase activity assay.
# Purified glucokinase may be obtained as follows. DNA encoding residues 12-465 of the full-length sequence of the human enzyme may be amplified by PCR and cloned into the HindIII and EcoRI sites of pFLAG-CTC (Sigma). SEQ. I.D. No. 1 corresponds to residues 12-465 of glucokinase.
# The expression of recombinant glucokinase protein may be carried out by transformation and growth of DH10b-T1r E. coli cells incorporating the (pFLAG-CTC) plasmid in LB media. Protein expression can be induced in this system by the addition of IPTG to the culture medium.
# Recombinant protein may be isolated from cellular extracts by passage over Sepharose Q Fast Flow resin (Pharmacia). This partially purified GK extract may then be further purified by a second passage over Poros HQ10 (Applied Biosystems). The purity of GK may be determined on denaturing SDS-PAGE gel. Purified GK may then be concentrated to a final concentration of 20.0 mg/ml. After flash freezing in liquid nitrogen, the proteins can be stored at −78° C. in a buffer containing 25 mM TRIS-HCl pH 7.6, 50 mM NaCl, and 0.5 mM TCEP.
# The activation properties of compounds for GK may be determined using a black 384-well-plate format under the following reaction conditions: 25 mM Hepes pH 7.2, 25 mM NaCl, 10 mM MgCl2, 0.01% Brij35, 1 mM DTT, 5 μM ATP, 5 mM Glucose 2% DMSO. The amount of ATP consumed may be determined quantitatively by addition of equal volume of luciferase reagent (luciferase+beetle luciferin—KinaseGlo Luminescent Kinase Assay kit from Promega). The luminescence intensity may be measured by using the Analyst HT from LJL Biosystems.
# The assay reaction may be initiated as follows: 4 μl of substrate mixture (12.5 μM ATP and 12.5 mM Glucose) was added to each well of the plate, followed by the addition of 2 μl of activator (2 fold serial dilutions for 11 data points for each activator) containing 10% DMSO. 4 μL of 1.25 nM GK solution may be added to initiate the reaction. The reaction mixture may then be incubated at room temperature for 60 min, and quenched and developed by addition of 10 μL of luciferase reagent. Luminescence intensities of the resulting reaction mixtures may be measured after a 10 min incubation at room temperature. The luminescence intensity may be measured by using the Analyst HT from LJL Biosystems.
# pKact and % ACTmax values may be calculated by non-linear curve fitting of the compound concentrations and luminescence intensities to a standard inhibition/activation equation.
row,SMILES,EC50 [nM]
1,"CS(=O)(=O)c1cc(Cl)c2ncn(C(CC3CCCCC3)C(=O)Nc3ccc(C(N)=O)cn3)c(=O)c2c1 (centres unmarked) [Compound 92, 6-[2-(8-Chloro-6-methanesulfonyl-4-oxo-4H-quinazolin-3-yl)-3-cyclohexyl-propionylamino]-nicotinamide]",501 to 794
2,"COC(=O)c1ccc(NC(=O)C(CC2CCCCC2)n2cnc3c(C(F)(F)F)cccc3c2=O)nc1 (centres unmarked) [Compound 209, methyl 6-(3-cyclohexyl-2-(4-oxo-8-(trifluoromethyl)quinazolin-3(4H)-yl)propanamido)nicotinate]",1000 to 1580
3,"CS(=O)(=O)c1ccc2c(=O)n(C(CC3CCCCC3)C(=O)Nc3ncc(Cl)s3)c(=O)[nH]c2c1 (centres unmarked) [Compound 55, N-(5-Chloro-thiazol-2-yl)-3-cyclohexyl-2-(7-methanesulfonyl-2,4-dioxo-1,4-dihydro-2H-quinazolin-3-yl)-propionamide]",501 to 794
4,"O=C(Nc1nc2ccccc2s1)C(CC1CCCCC1)n1cnc2ccc(F)cc2c1=O (centres unmarked) [Compound 35, N-(benzo[d]thiazol-2-yl)-3-cyclohexyl-2-(6-fluoro-4-oxoquinazolin-3(4H)-yl)propanamide]",501 to 794
5,"CS(=O)(=O)c1ccc2c(=O)n(C(Cc3c(F)cccc3F)C(=O)Nc3ccc(Cl)cn3)cnc2c1 (centres unmarked) [Compound 77, N-(5-Chloro-pyridin-2-yl)-3-(2,6-difluoro-phenyl)-2-(7-methanesulfonyl-4-oxo-4H-quinazolin-3-yl)-propionamide]",1000 to 1580
6,"COC(=O)c1ccc(NC(=O)C(CC2CCCCC2)n2cnc3ccc(F)cc3c2=O)nc1 (centres unmarked) [Compound 193, methyl 6-(3-cyclohexyl-2-(6-fluoro-4-oxoquinazolin-3(4H)-yl)propanamido)nicotinate]",≥ 2000
7,"CCS(=O)(=O)c1ccc2c(=O)n(C(CC3CCCCC3)C(=O)Nc3ccc(F)cn3)cnc2c1 (centres unmarked) [Compound 71, 3-Cyclohexyl-2-(7-ethanesulfonyl-4-oxo-4H-quinazolin-3-yl)-N-(5-fluoro-pyridin-2-yl)-propionamide]",1000 to 1580
8,"CC(C)S(=O)(=O)c1csc2c(=O)n(C(CC3CCCCC3)C(=O)Nc3ccc(F)cn3)cnc12 (centres unmarked) [Compound 105, 3-Cyclohexyl-N-(5-fluoropyridin-2-yl)-2-(7-(isopropylsulfonyl)-4-oxothieno[3,2-d]pyrimidin-3(4H)-yl)propanamide]",1000 to 1580
9,"O=C(Nc1ncc(F)s1)C(CC1CCCCC1)n1c(=O)[nH]c2ccc(F)cc2c1=O (centres unmarked) [Compound 57, 3-Cyclohexyl-2-(6-fluoro-2,4-dioxo-1,4-dihydro-2H-quinazolin-3-yl)-N-(5-fluoro-thiazol-2-yl)-propionamide]",≥ 2000
10,"COC(=O)c1ccc(NC(=O)[C@H](CC2CCCCC2)n2cnc3ccc(F)cc3c2=O)nc1 [Compound 203, (S)-methyl 6-(3-cyclohexyl-2-(6-fluoro-4-oxoquinazolin-3(4H)-yl)propanamido)nicotinate]",1000 to 1580
11,"COC(=O)c1ccc(NC(=O)[C@@H](CC2CCCCC2)n2cnc3c(C(F)(F)F)cccc3c2=O)nc1 [Compound 211, (R)-methyl 6-(3-cyclohexyl-2-(4-oxo-8-(trifluoromethyl)quinazolin-3(4H)-yl)propanamido)nicotinate]",≤ 398
12,"COC(=O)c1ccc(NC(=O)C(CC2CCCCC2)n2cnc3c(S(=O)(=O)C(C)C)csc3c2=O)nc1 (centres unmarked) [Compound 104, Methyl 6-(3-cyclohexyl-2-(7-(isopropylsulfonyl)-4-oxothieno[3,2-d]pyrimidin-3(4H)-yl)propanamido)nicotinate]",501 to 794
13,"CS(=O)(=O)c1ccc2c(=O)n(C(CC3CCCCC3)C(=O)Nc3ccc(F)cn3)cnc2c1 (centres unmarked) [Compound 70, 3-Cyclohexyl-N-(5-fluoro-pyridin-2-yl)-2-(7-methanesulfonyl-4-oxo-4H-quinazolin-3-yl)-propionamide]",≥ 2000
14,"O=C(NC1CCCC1)c1ccc2c(=O)n(C(CC3CCCCC3)C(=O)Nc3ncc(Cl)s3)cnc2c1 (centres unmarked) [Compound 173, 3-(1-(5-chlorothiazol-2-ylamino)-3-cyclohexyl-1-oxopropan-2-yl)-N-cyclopentyl-4-oxo-3,4-dihydroquinazoline-7-carboxamide]",501 to 794
15,"NC(=O)c1ccc(NC(=O)C(CC2CCCCC2)n2cnc3cc(S(=O)(=O)C4CCCC4)ccc3c2=O)nc1 (centres unmarked) [Compound 80, 6-[3-Cyclohexyl-2-(7-cyclopentanesulfonyl-4-oxo-4H-quinazolin-3-yl)-propionylamino]-nicotinamide]",≤ 398
16,"O=C(Nc1ncc(Cl)s1)C(CC1CCCCC1)n1cnc2ccc(F)cc2c1=O (centres unmarked) [Compound 50, N-(5-Chloro-thiazol-2-yl)-3-cyclohexyl-2-(6-fluoro-4-oxo-4H-quinazolin-3-yl)-propionamide]",≥ 2000
17,"CN(C)CCNC(=O)c1ccc2c(=O)n(C(CC3CCCCC3)C(=O)Nc3ncc(Cl)s3)cnc2c1 (centres unmarked) [Compound 176, 3-(1-(5-chlorothiazol-2-ylamino)-3-cyclohexyl-1-oxopropan-2-yl)-N-(2-(dimethylamino)ethyl)-4-oxo-3,4-dihydroquinazoline-7-carboxamide]",1000 to 1580
